Laboratory results: patent US20120238557A1, “AMINOTHIAZINE OR AMINOOXAZINE DERIVATIVE HAVING AMINO LINKER” (SHIONOGI & CO., LTD., priority 2009, published 2012)
Like-named read-outs stand apart in the source and are kept apart here.

Columns and labels:
[1] = target: T1, hERG (IKr) (Homo sapiens, UniProt Q12809); assay: hERG test; assay type: cell-based; conditions: pH 7.4, HEK293 cells expressing hERG channel, whole cell patch clamp, concentration not given, read-out: % inhibition relative to the tail peak current (IKr)
T1 construct: expressed in transfected cells; host or cells: HEK293
Source text: For the purpose of assessing risk of an electrocardiogram QT interval prolongation, effects on delayed rectifier K+ current (IKr), which plays an important role in the ventricular repolarization process, was studied using HEK293 cells expressing human ether-a-go-go related gene (hERG) channel.
After a cell was retained at a membrane potential of −80 mV by whole cell patch clamp method using an automated patch clamp system (PatchXpress 7000A, Axon Instruments Inc.), IKr induced by depolarization pulse stimulation at +40 mV for 2 seconds and, further, repolarization pulse stimulation at −50 mV for 2 seconds was recorded. […] From the recording IKr, an absolute value of the tail peak current was measured based on the current value at the resting membrane potential using an analysis software (DataXpress ver.1, Molecular Devices Corporation). Further, the % inhibition relative to the tail peak current before application of the test substance was calculated, and compared with the vehicle-applied group (0.1% dimethyl sulfoxide solution) to assess influence of the test substance on IKr.

[2] = test system: Neuroblastoma SH-SY5Y cells (SH/APPwt) with human wild-type β-APP excessively expressed; assay: Measurement of β-amyloid (Aβ) production inhibitory effect in cell; assay type: cell-based
Experimental: Neuroblastoma SH-SY5Y cells (SH/APPwt) with human wild-type β-APP excessively expressed therein were prepared at 8×10^5 cells/mL, and 150 μl portions thereof were inoculated into each well of a 96-well culture plate (Falcon). The cells were cultured for 2 hours at 37° C. in a 5% gaseous carbon dioxide incubator. Then, a solution which had been preliminarily prepared by adding and suspending the test compound (DMSO (dimethyl sulfoxide) solution) so as to be 2 μl/50 μl medium was added to the cell sap. Namely, the final DMSO concentration was 1%, and the amount of the cell culture was 200 μl. After the incubation was performed for 24 hours from the addition of the test compound, 100 μl of the culture supernatant was collected from each fraction. The amount of the Aβ in each fraction was measured.
The Aβ amount was measured as follows. 10 μl of a homogeneous time resolved fluorescence (HTRF) measurement reagent (Amyloid β 1-40 peptide; IBA Molecular Holding, S. A.) and 10 μl of the culture supernatant were put into a 384-well half area microplate (black microplate, Costar) and mixed with each other, and then left standing overnight at 4° C. while the light was shielded. Then, the fluorescence intensity (excitation wavelength: 337 nm, measurement wavelength: 620 nm and 665 nm) was measured with a Wallac 1420 multilabel counter (Perkin Elmer life sciences).

[3] = target: T2, CYP3A4 enzyme expressed in Escherichia coli (Homo sapiens, UniProt P08684); assay: CYP3A4 fluorescent MBI test; assay type: in vitro ADME; conditions: pre-reaction time 0 or 30 minutes; substrate 7-BFC
T2 construct: host or cells: Escherichia coli
Experimental: The CYP3A4 fluorescent MBI test is a test of investigating enhancement of CYP3A4 inhibition of a compound by a metabolism reaction, and the test was performed using, as CYP3A4 enzyme expressed in Escherichia coli and employing, as an index, a reaction in which 7-benzyloxytrifluoromethylchmarin (7-BFC) is debenzylated by the CYP3A4 enzyme to produce a metabolite, 7-hydroxytrifluoromethylchmarin (HFC) emitting fluorescent light.
The reaction conditions were as follows: substrate, 5.6 μmol/L 7-BFC; pre-reaction time, 0 or 30 minutes; reaction time, 15 minutes; reaction temperature, 25° C. […]
An enzyme in a K-Pi buffer (pH 7.4) and a test drug solution as a pre-reaction solution were added to a 96-well plate at the composition of the pre-reaction, a part of it was transferred to another 96-well plate so that it was 1/10 diluted by a substrate in a K-Pi buffer, NADPH as a co-factor was added to initiate a reaction as an index (without preincubation) and, after a predetermined time of a reaction, acetonitrile/0.5 mol/L Tris(trishydroxyaminomethane)=4/1 was added to stop the reaction. […] For the plate on which each index reaction had been performed, a fluorescent value of 7-HFC which is a metabolite was measured with a fluorescent plate reader. […]

[4] = Solubility test; assay type: physicochemical; conditions: JP-I and JP-II media (2% DMSO stock added), aqueous buffer, kinetic from dmso stock, medium (JP-I, JP-II), turbidity after 4 hours
Experimental: A 2-fold dilution series (12 points) of a 10 mM solution of a test compound in DMSO was added to a medium (JP-I, JP-II) (2%), and solubility was assessed by 3 stages (High; >40 μM, Medium; 3-40 μM, Low; <3 μM) from a turbidity after 4 hours (crystallization information).

[5] = target: T3, CYP2D6 (Homo sapiens, UniProt P10635); assay: CYP inhibition test (CYP2D6); assay type: in vitro ADME; conditions: pooled human hepatic microsome; dextromethorphan O-demethylation
T3 construct: enzyme, pooled human hepatic microsome 0.2 mg protein/mL; from tissue; host or cells: pooled human hepatic microsomes
Experimental: (§1) Using commercially available pooled human hepatic microsome, and employing, as markers, 7-ethoxyresorufin O-deethylation (CYP1A2), tolbutamide methyl-hydroxylation (CYP2C9), mephenyloin 4′-hydroxylation (CYP2C19), dextromethorphan O-demethylation (CYP2D6), and terfenedine hydroxylation (CYP3A4) as typical substrate metabolism reactions of human main five CYP enzyme forms (CYP1A2, 2C9, 2C19, 2D6, 3A4), an inhibitory degree of each metabolite production amount by a test compound was assessed. […] After the centrifugation at 3000 rpm for 15 minutes, resorufin (CYP1A2 metabolite) in the supernatant was quantified by a fluorescent multilabel counter and tolbutamide hydroxide (CYP2C9 metabolite), mephenyloin 4′ hydroxide (CYP2C19 metabolite), dextrorphan (CYP2D6 metabolite), and terfenadine alcohol (CYP3A4 metabolite) were quantified by LC/MS/MS. Addition of only DMSO being a solvent dissolving a drug to a reaction system was adopted as a control (100%), remaining activity (%) was calculated at each concentration of a test drug added as the solution and IC50 was calculated by reverse presumption by a logistic model using a concentration and an inhibition rate.

[6] = target: T4, CYP3A4 (Homo sapiens, UniProt P08684); assay: CYP inhibition test (CYP3A4); assay type: in vitro ADME; conditions: pooled human hepatic microsome; terfenedine hydroxylation
T4 construct: enzyme, pooled human hepatic microsome 0.2 mg protein/mL; from tissue; host or cells: pooled human hepatic microsomes
Experimental: as §1

[7] = target: T5, CYP1A2 (Homo sapiens, UniProt P05177); assay: CYP inhibition test (CYP1A2); assay type: in vitro ADME; conditions: pooled human hepatic microsome; 7-ethoxyresorufin O-deethylation
T5 construct: enzyme, pooled human hepatic microsome 0.2 mg protein/mL; from tissue; host or cells: pooled human hepatic microsomes
T5 sequence (P05177 1-516): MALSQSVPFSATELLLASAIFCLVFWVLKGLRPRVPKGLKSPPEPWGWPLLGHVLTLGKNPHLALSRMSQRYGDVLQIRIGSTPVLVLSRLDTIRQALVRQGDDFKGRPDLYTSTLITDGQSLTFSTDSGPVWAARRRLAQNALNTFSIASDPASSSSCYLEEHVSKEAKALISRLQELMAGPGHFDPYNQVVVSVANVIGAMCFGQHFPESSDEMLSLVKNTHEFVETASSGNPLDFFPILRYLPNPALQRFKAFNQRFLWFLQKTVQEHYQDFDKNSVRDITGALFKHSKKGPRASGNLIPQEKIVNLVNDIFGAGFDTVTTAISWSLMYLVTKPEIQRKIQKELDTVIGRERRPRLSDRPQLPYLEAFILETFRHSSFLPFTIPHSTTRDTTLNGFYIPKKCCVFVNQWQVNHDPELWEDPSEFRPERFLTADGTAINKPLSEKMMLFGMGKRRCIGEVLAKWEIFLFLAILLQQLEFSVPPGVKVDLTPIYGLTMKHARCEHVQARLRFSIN
Experimental: as §1

[8] = target: T6, CYP2C19 (Homo sapiens, UniProt P33261); assay: CYP inhibition test (CYP2C19); assay type: in vitro ADME; conditions: pooled human hepatic microsome; mephenyloin 4′-hydroxylation
T6 construct: enzyme, pooled human hepatic microsome 0.2 mg protein/mL; from tissue; host or cells: pooled human hepatic microsomes
Experimental: as §1

[9] = target: T7, CYP2C9 (Homo sapiens, UniProt P11712); assay: CYP inhibition test (CYP2C9); assay type: in vitro ADME; conditions: pooled human hepatic microsome; tolbutamide methyl-hydroxylation
T7 construct: enzyme, pooled human hepatic microsome 0.2 mg protein/mL; from tissue; host or cells: pooled human hepatic microsomes
Experimental: as §1

[10] = Metabolism stability test; assay type: in vitro ADME; conditions: human liver microsomes 0.5 mg protein/mL, 1 mmol/L NADPH, 37° C., 30 minutes; 0 minute = 100%
Experimental: Using a commercially available pooled human hepatic microsomes, a test compound was reacted for a constant time, a remaining rate was calculated by comparing a reacted sample and an unreacted sample, thereby, a degree of metabolism in liver was assessed.
A reaction was performed (oxidative reaction) at 37° C. for 0 minute or 30 minutes in the presence of 1 mmol/L NADPH in 0.2 mL of a buffer (50 mmol/L Tris-HCl pH 7.4, 150 mmol/L potassium chloride, 10 mmol/L magnesium chloride) containing 0.5 mg protein/mL of human liver microsomes. After the reaction, 50 μL of the reaction solution was added to 100 μL of a methanol/acetonitrile=1/1 (v/v), mixed and centrifuged at 3000 rpm for 15 minutes. The test compound in the supernatant was quantified by LC/MS/MS, and a remaining amount of the test compound after the reaction was calculated, letting a compound amount at 0 minute reaction time to be 100%.

[11] = Aβ production in SH/APPwt cells, by the similar test, read-out: IC50 value
[12] = amount needed to inhibit Aβ production by 50%, SH/APPwt cells, 24 hours, Table 3, read-out: IC50

T3 sequence (P10635 whole entry): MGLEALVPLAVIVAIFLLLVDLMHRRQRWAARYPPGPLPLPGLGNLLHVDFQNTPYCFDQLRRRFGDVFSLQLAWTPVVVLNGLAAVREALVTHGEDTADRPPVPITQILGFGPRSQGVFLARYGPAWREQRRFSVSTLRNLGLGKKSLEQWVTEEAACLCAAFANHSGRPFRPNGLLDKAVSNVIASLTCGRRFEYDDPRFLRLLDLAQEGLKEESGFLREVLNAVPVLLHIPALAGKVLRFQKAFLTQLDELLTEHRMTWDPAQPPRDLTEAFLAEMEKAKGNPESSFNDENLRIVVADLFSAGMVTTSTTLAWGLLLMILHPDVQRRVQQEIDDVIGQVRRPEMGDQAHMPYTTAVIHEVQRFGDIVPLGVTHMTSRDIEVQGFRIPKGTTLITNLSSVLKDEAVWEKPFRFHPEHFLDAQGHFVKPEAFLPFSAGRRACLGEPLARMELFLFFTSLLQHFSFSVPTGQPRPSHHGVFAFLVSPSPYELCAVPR
T2 sequence (P08684 whole entry): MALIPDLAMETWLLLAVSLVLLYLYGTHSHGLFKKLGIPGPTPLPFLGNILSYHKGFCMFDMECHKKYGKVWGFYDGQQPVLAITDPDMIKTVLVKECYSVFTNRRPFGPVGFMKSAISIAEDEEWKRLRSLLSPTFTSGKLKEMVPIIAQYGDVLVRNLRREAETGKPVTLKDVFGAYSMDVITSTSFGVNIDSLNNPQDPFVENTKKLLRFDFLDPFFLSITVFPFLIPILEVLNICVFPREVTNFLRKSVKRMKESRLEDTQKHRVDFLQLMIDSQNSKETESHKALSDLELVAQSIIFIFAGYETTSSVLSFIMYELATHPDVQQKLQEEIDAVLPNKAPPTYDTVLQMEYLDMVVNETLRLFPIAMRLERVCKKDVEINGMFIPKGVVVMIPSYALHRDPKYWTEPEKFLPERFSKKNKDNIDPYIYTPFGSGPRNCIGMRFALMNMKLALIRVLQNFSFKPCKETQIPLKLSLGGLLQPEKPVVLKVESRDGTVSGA
T4 sequence (P08684 whole entry): as above
T7 sequence (P11712 whole entry): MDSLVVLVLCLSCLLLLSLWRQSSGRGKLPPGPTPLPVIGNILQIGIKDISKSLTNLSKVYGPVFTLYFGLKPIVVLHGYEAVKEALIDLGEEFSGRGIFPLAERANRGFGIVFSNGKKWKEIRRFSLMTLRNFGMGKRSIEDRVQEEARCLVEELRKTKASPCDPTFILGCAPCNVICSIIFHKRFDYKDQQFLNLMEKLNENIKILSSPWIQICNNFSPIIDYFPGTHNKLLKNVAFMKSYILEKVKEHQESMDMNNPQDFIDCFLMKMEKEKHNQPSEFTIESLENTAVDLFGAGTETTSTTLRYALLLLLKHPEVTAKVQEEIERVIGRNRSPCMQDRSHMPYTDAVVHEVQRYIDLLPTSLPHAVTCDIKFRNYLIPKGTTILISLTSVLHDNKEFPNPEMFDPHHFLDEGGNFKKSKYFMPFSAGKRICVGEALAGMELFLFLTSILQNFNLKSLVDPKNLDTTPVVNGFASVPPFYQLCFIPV
T6 sequence (P33261 whole entry): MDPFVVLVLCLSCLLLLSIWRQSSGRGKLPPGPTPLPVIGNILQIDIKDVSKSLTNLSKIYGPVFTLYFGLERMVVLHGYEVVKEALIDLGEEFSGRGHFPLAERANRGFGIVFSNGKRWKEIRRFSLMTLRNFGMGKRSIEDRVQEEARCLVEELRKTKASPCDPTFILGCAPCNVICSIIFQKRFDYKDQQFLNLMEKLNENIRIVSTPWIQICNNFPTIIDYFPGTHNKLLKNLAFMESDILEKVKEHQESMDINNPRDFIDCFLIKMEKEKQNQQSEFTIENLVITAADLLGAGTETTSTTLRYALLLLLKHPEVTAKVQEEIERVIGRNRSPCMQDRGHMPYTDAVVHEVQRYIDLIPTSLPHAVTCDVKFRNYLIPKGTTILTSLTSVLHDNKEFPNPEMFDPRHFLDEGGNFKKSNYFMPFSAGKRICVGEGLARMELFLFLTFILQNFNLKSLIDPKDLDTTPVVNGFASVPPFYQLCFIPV
T1 sequence (Q12809 whole entry): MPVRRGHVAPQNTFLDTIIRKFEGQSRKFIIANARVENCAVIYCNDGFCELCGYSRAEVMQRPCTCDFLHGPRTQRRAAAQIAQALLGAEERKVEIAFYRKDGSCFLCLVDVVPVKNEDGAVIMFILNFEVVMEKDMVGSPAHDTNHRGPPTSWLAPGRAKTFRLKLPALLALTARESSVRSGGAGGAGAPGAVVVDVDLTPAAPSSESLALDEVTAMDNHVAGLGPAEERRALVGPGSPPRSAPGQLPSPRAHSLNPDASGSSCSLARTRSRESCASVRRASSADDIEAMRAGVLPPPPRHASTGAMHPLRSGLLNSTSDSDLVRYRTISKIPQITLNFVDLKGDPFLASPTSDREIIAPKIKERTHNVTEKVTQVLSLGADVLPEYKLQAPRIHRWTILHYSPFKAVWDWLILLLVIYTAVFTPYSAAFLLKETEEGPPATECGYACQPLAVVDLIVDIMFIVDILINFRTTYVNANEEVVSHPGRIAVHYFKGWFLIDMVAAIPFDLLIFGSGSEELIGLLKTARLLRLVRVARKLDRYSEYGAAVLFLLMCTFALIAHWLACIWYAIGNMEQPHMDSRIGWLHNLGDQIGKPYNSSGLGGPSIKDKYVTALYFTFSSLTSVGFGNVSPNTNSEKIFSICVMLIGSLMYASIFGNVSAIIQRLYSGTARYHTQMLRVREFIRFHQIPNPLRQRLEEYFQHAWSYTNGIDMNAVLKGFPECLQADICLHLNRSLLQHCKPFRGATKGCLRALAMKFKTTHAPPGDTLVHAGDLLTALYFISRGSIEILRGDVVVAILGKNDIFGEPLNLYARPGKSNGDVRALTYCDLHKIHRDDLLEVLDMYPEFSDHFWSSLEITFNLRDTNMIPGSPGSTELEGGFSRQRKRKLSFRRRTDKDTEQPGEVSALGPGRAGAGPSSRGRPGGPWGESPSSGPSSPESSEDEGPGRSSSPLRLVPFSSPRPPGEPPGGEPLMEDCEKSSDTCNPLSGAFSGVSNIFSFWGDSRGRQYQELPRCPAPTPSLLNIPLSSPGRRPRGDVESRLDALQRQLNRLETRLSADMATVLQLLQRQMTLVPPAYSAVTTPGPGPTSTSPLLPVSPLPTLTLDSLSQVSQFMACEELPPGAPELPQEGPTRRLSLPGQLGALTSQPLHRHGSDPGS

Structure (SMILES): C[C@@]1(c2cc(Nc3ccncn3)ccc2F)CCSC(N)=N1 [Compound I-1]
- inhibition at 10 min [1]: 3.2%
- IC50 [2, 11]: ≤ 3 µM

Structure (SMILES): C[C@@]1(c2cc(Nc3ncccc3C#N)ccc2F)CCOC(N)=N1 [Compound I-3]
- CYP3A4 MBI: difference between IC50 values [3]: (−) (when the difference is 3 μM or less, this was defined as (−))

Structure (SMILES): COc1cccnc1Nc1ccc(F)c([C@]2(C)CCOC(N)=N2)c1 [Compound I-6]
- IC50 [2, 12]: 0.016 µM

Structure (SMILES): C[C@@]1(c2cc(Nc3ncccc3C#N)ccc2F)C=CSC(N)=N1 [Compound I-9]
- solubility at 4 h [4]: > 40 µM

Structure (SMILES): C[C@@]1(c2cc(Nc3ncccc3N)ccc2F)CCSC(N)=N1 [Compound I-10]
- IC50 [5]: > 21 µM
- IC50 [6]: > 21 µM
- IC50 [2, 11]: ≤ 3 µM
- IC50 [7]: > 21 µM
- IC50 [8]: > 21 µM
- IC50 [9]: > 21 µM

Structure (SMILES): Cc1cccc(Nc2ccc(F)c([C@]3(C)CCSC(N)=N3)c2)n1 [Compound I-12]
- IC50 [2, 11]: ≤ 3 µM

Structure (SMILES): C[C@@]1(c2cc(Nc3ncccc3CO)ccc2F)CCSC(N)=N1 [Compound I-16]
- IC50 [2, 11]: ≤ 3 µM

Structure (SMILES): COc1cccnc1Nc1ccc(F)c([C@]2(C)CCSC(N)=N2)c1 [Compound I-18]
- IC50 [2, 12]: 0.011 µM

Structure (SMILES): COc1ccnc(Nc2ccc(F)c([C@]3(C)CCSC(N)=N3)c2)c1 [Compound I-19]
- IC50 [2, 11]: ≤ 3 µM

Structure (SMILES): COc1ccc(Nc2ccc(F)c([C@]3(C)CCSC(N)=N3)c2)nc1 [Compound I-20]
- IC50 [2, 11]: ≤ 3 µM

Structure (SMILES): COCc1ccc(Nc2ccc(F)c([C@]3(C)CCSC(N)=N3)c2)nc1 [Compound I-23]
- IC50 [2, 11]: ≤ 3 µM

Structure (SMILES): CC(C)Oc1cccnc1Nc1ccc(F)c([C@]2(C)CCSC(N)=N2)c1 [Compound I-24]
- IC50 [2, 11]: ≤ 3 µM

Structure (SMILES): CCCCOC(=O)c1cccnc1Nc1ccc(F)c([C@]2(C)CCOC(N)=N2)c1 [Compound I-25]
- IC50 [2, 11]: ≤ 3 µM

Structure (SMILES): CC(C)OCc1ccc(Nc2ccc(F)c([C@]3(C)CCSC(N)=N3)c2)nc1 [Compound I-26]
- IC50 [2, 11]: ≤ 3 µM

Structure (SMILES): C[C@@]1(c2cccc(Nc3ncccc3C#N)c2)CCSC(N)=N1 [Compound I-33]
- remaining amount of the test compound after the reaction [10]: 95%
